Measurements: patent US9452225B2, “GLP-1 prodrugs” (Novo Nordisk A/S, priority 2012, dated 2016)
Numbered stars: 1 amine (or outer) side, 2 acyl side, 3 side chain; on linkers, the order of the positions; unused ones are H or OH. Square brackets hold non-standard residues; d marks the D form. Side chains are listed from the residue outwards. Peptide text beside a SMILES is read from it. * marks the point of attachment. Decanoyl(10-(4-HOOC-PhO)) = O=C(O)c1ccc(OCCCCCCCCCC(=O)*)cc1; Lactoyl(3-(imidazol-4-yl)) = O=C([C@@H](O)Cc1c[nH]cn1)*; Lac(3-(imidazol-4-yl)) = O=C(O)[C@@H](O)Cc1c[nH]cn1; γGlu = O=C(O)[C@H](CCC(=O)[*:2])N[*:1]; AEEA = NCCOCCOCC(=O)O; Sar = CNCC(=O)O

Key:
human GLP-1 receptor = molecular target: T1, human GLP-1 receptor (Homo sapiens, UniProt P43220); assay: In vitro potency, AlphaScreen cAMP assay on membranes; type: biochemical; conditions: cAMP formation, membranes of BHK467-12A cells
T1 construct: expressed in transfected cells; host or cells: BHK cells, clone FCW467-12A (parent line BHKTS13), membranes
T1 sequence (P43220 24-463): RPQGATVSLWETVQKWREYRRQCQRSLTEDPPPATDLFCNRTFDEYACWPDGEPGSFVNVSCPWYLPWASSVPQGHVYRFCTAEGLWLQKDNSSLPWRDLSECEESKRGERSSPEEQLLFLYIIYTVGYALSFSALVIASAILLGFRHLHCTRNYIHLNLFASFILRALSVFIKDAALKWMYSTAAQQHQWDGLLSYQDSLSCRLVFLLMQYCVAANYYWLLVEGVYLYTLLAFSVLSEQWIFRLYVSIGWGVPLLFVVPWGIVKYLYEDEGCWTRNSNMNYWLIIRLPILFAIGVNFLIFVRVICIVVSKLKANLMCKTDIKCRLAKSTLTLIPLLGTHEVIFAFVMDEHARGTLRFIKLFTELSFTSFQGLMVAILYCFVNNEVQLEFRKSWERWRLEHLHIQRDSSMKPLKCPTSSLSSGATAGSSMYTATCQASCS
Description: The purpose of this example is to test the activity, or potency, in vitro of, for example, the GLP-1 parent drugs of the prodrugs of the invention.
Purified plasma membranes from a stable transfected cell line, BHK467-12A (tk-ts13), expressing the human GLP-1 receptor were stimulated with the GLP-1 drug in question, and the potency of cAMP production was measured using the AlphaScreen™ cAMP Assay Kit from Perkin Elmer Life Sciences. The basic principle of The AlphaScreen Assay is a competition between endogenous cAMP and exogenously added biotin-cAMP. The capture of cAMP is achieved by using a specific antibody conjugated to acceptor beads.
A stable transfected cell line and a high expressing clone were selected for screening. The cells were grown at 5% CO2 in DMEM, 10% FCS, 1% Pen/Strep (Penicillin/Streptomycin) and preferably 0.5 (alternatively 1.0 mg/ml) of the selection marker G418.
Cells at approximate 80% confluence were washed twice with PBS and harvested with Versene (aqueous solution of the tetrasodium salt of ethylenediaminetetraacetic acid), centrifuged 5 min at 1000 rpm and the supernatant removed. The additional steps were all made on ice. The cell pellet was homogenised by the Ultrathurax for 20-30 s in 10 ml of Buffer 1 (20 mM Na-HEPES, 10 mM EDTA, pH=7.4), centrifuged 15 min at 20,000 rpm and the pellet resuspended in 10 ml of Buffer 2 (20 mM Na-HEPES, 0.1 mM EDTA, pH=7.4). The suspension was homogenised for 20-30 s and centrifuged 15 min at 20,000 rpm. Suspension in Buffer 2, homogenisation and centrifugation was repeated once and the membranes were resuspended in Buffer 2. The protein concentration was determined and the membranes stored at −80° C. until use.
The assay was performed in flat-bottom 96-well plates (Costar cat. no: 3693). The final volume per well was 50 μl.
AlphaScreen cAMP Assay Kit from Perkin Elmer Life Sciences (cat. No: 6760625M); containing Anti-cAMP Acceptor beads (10 U/μl), Streptavidin Donor beads (10 U/μl) and Biotinylated-cAMP (133 U/μl). […]

[1] = Prodrug half-life in vitro, buffer method; type: physicochemical; conditions: 25 mM phosphate buffer pH 7.4, 37° C., 1.0 mg/mL; UPLC_A, or UPLC_B for compounds marked *; read-out: T½ in buffer (converted)
Description: (§1) The purpose of this example is to test the in vitro half-lives (T½) of the GLP-1 prodrugs of the invention, in comparison to conceptually different prodrugs. In what follows two in vitro methods are described, viz. a method conducted in buffer, and a method conducted in plasma.
Buffer: 25 mM Phosphate (Ionic strength: 154 mM, pH 7.4 at 37° C.)
NaH2PO4.2H2O (1.95 g, 12.5 mmol) and NaCl (2.61 g, 44.7 mmol) were dissolved in millipore water (approximately 450 mL) and adjusted to pH=7.44 at approximately 20° C. with concentrated NaOH and 1 M NaOH. Water was added to 500.00 mL.
The compound to be tested was dissolved in buffer to a concentration of 1.0 mg/mL and incubated at 37° C. Samples were taken at adequate intervals and the % parent drug compared to prodrug formed as function of time was evaluated by the UPLC method as referred to in Table 1 by comparing the areas under the curves for the two corresponding peaks. These UPLC methods are described in the general experimental section above (UPLC_A, and UPLC_B).
(§2) The half life of the prodrug (T½) was calculated from the slope of a linear fit to the curve of ln(% prodrug (Y)) as a function of time (t), as follows: Y=÷αt+k Math. 1 T½=ln(2)/α Math. 2 Plasma Method Buffer: 200 mM Phosphate, pH 7.4 at 37° C.
The resulting half-lives are set out in Table 1 below. For comparison, the T½ in buffer of native GLP-1(7-37) (His7 variant of SEQ ID NO: 1) was 13 minutes (0.2 hours).

[2] = Prodrug half-life in vitro, plasma method (minipig heparin plasma); type: in vitro ADME; conditions: minipig heparin plasma 800 μL + 200 μL 200 mM phosphate pH 7.4, 37° C.; UPLC_A, or UPLC_B for compounds marked *; read-out: T½ in plasma (converted)
Description: as §1, §2
NaH2PO4.2H2O (15.61 g, 100 mmol) was dissolved in milliQ water (approximately 450 mL) and adjusted to pH=7.44 at approximately 20° C. with concentrated NaOH (aq) and 1 M NaOH (aq). Water was added to 500.00 mL.
Serum: Minipig Serum, Heparin-Plasma
Fresh blood was tapped from minipig into 9 mL LH lithium heparin Vacuette tubes from Greiner bio-one (catalogue number 455084). After cooling on ice it was centrifuged (10 min, 4° C., 3000 rpm/1942G) and the supernatant isolated and kept at −18° C. before use.
100 nmol of the compound to be tested was dissolved in 200 μL buffer, added to 800 μL plasma (centrifuged), and incubated at 37° C. Samples (50 μL) were drawn at appropriate intervals into 150 μL absolute EtOH. After a short stirring the sample was centrifuged and the supernatant transferred to the UPLC vial (10 μL injection).
The % parent drug compared to prodrug formed as a function of time was evaluated by UPLC, and the half-life calculated, both in the same way as described above under the Buffer method.

| Compound | EC50 (human GLP-1 receptor) | half-life at 1 mg/mL [1] | half-life [2] |
| --- | --- | --- | --- |
| CC[C@H](C)[C@H](NC(=O)[C@H](Cc1ccccc1)NC(=O)[C@H](CCC(=O)O)NC(=O)[C@H](CCCCNC(=O)COCCOCCNC(=O)COCCOCCNC(=O)CC[C@H](NC(=O)CCCCCCCCCOc1ccc(C(=O)O)cc1)C(=O)O)NC(=O)[C@H](C)NC(=O)[C@H](C)NC(=O)[C@H](CCC(N)=O)NC(=O)[C@H](CCC(=O)O)NC(=O)[C@H](CCC(=O)O)NC(=O)[C@H](CC(C)C)NC(=O)[C@H](Cc1ccc(O)cc1)NC(=O)[C@H](CCCCNC(=O)COCCOCCNC(=O)COCCOCCNC(=O)CC[C@H](NC(=O)CCCCCCCCCOc1ccc(C(=O)O)cc1)C(=O)O)NC(=O)[C@H](CO)NC(=O)[C@@H](NC(=O)[C@H](CC(=O)O)NC(=O)[C@H](CO)NC(=O)[C@@H](NC(=O)[C@H](Cc1ccccc1)NC(=O)[C@@H](NC(=O)CNC(=O)[C@H](CCC(=O)O)NC(=O)[C@H](C)NC(=O)[C@@H](O)Cc1c[nH]cn1)[C@@H](C)O)[C@@H](C)O)C(C)C)C(=O)N[C@@H](C)C(=O)N[C@@H](Cc1c[nH]c2ccccc12)C(=O)N[C@@H](CC(C)C)C(=O)N[C@H](C(=O)N[C@@H](CCC(N)=O)C(=O)NCC(=O)N[C@@H](CCCNC(=N)N)C(=O)NCC(=O)O)C(C)C [Example B2.3] ({Lactoyl(3-(imidazol-4-yl))}-AEGTFTSDVSK([AEEA-AEEA-γGlu-Decanoyl(10-(4-HOOC-PhO))])YLEEQAAK([AEEA-AEEA-γGlu-Decanoyl(10-(4-HOOC-PhO))])EFIAWLVQGRG-OH; C-terminus assumed) | 1300 pM |  |  |
| CC[C@H](C)[C@H](NC(=O)[C@H](Cc1ccccc1)NC(=O)[C@H](CCC(=O)O)NC(=O)[C@H](CCCNC(=N)N)NC(=O)[C@@H](NC(=O)[C@H](C)NC(=O)[C@H](CCC(N)=O)NC(=O)[C@H](CCC(=O)O)NC(=O)[C@H](CCC(=O)O)NC(=O)[C@H](CC(C)C)NC(=O)[C@H](Cc1ccc(O)cc1)NC(=O)[C@H](CCCCNC(=O)COCCOCCNC(=O)COCCOCCNC(=O)CC[C@H](NC(=O)CCCCCCCCCOc1ccc(C(=O)O)cc1)C(=O)O)NC(=O)[C@H](CO)NC(=O)[C@@H](NC(=O)[C@H](CC(=O)O)NC(=O)[C@H](CO)NC(=O)[C@@H](NC(=O)[C@H](Cc1ccccc1)NC(=O)[C@@H](NC(=O)CNC(=O)[C@H](CCC(=O)O)NC(=O)[C@H](C)NC(=O)[C@H](Cc1c[nH]cn1)OC(=O)[C@@H](NC(=O)CNC)C(C)C)[C@@H](C)O)[C@@H](C)O)C(C)C)C(C)C)C(=O)N[C@@H](C)C(=O)N[C@@H](CCCCNC(=O)COCCOCCNC(=O)COCCOCCNC(=O)CC[C@H](NC(=O)CCCCCCCCCOc1ccc(C(=O)O)cc1)C(=O)O)C(=O)N[C@@H](CC(C)C)C(=O)N[C@H](C(=O)N[C@@H](CCCNC(=N)N)C(=O)NCC(=O)N[C@@H](CCCNC(=N)N)C(=O)NCC(=O)O)C(C)C [Example 1] (H-[Sar]V[Lac(3-(imidazol-4-yl))]AEGTFTSDVSK([AEEA-AEEA-γGlu-Decanoyl(10-(4-HOOC-PhO))])YLEEQAVREFIAK([AEEA-AEEA-γGlu-Decanoyl(10-(4-HOOC-PhO))])LVRGRG-OH) |  | 9.6 h | 3.6 h |
